Assay results taken from ChEMBL document CHEMBL1201862, “PubChem BioAssay data set” (2004).
Active and inactive are the calls of the source.

Assays:
Vero [1] = experiment: cells; type: functional, cell-based; details: Chlorocebus sabaeus
[2] = Luminescence Cell-Based Dose Response HTS to Identify Activators of Luciferase Translation or Activity in H4 […] Cells. [Related pubchem assays: 1829 (Project Summary), 1814 (Primary HTS)]; type: functional
H4 = experiment: Luminescence Cell-Based Dose Response HTS to Identify Activators of 5'UTR Stem-Loop Driven Prion Protein mRNA Translation in H4 Neuroglioblastoma Cells. [Related pubchem assays: 1829 (Project Summary), 1814 (Primary HTS)]; type: functional; details: Homo sapiens
Vero [3] = experiment: cells; type: functional; details: Chlorocebus sabaeus
[4] = Luminescence Cell-Based Dose Confirmation HTS to Identify Activators of 5'UTR Stem-Loop Driven Alpha-Synuclein mRNA Translation in H4 Neuroglioblastoma Cells. [Related pubchem assays: 1829 (Project Summary), 1814 (Primary HTS)]; type: functional
HeLa = experiment: ATP-based viability loss in HeLa cells – cell-based, CellTiter-Glo luminescence, cherry-pick samples, cytotoxicity control for MITF activator project, dose response (AID 540259); type: functional; details: Homo sapiens
[5] = target: Luciferin 4-monooxygenase (Photinus pyralis, UniProt P08659); experiment: inhibition of purified Photinus pyralis luciferase – biochemical, luminescence, dose response (AID 1891)
Luciferin 4-monooxygenase, sequence (P08659 whole entry): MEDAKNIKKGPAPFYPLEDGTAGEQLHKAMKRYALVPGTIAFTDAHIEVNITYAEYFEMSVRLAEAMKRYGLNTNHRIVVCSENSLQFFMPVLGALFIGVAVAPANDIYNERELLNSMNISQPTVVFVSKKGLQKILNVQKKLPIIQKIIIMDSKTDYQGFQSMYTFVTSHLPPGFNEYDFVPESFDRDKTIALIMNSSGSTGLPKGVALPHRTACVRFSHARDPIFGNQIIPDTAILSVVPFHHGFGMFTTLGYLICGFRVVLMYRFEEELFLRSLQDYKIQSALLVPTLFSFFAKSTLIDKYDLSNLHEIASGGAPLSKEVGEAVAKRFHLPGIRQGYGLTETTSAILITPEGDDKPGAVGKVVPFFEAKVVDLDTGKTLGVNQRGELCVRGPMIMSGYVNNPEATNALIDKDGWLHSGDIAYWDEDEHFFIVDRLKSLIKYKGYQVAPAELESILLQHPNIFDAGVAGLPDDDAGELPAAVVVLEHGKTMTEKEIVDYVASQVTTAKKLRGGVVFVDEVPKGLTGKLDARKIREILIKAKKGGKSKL

[6] = loss of viability in HepG2 cells – cell-based, CellTiter-Glo, cherry-picked, cytotoxicity control for Shn3 inhibitor project, dose response (AID 624134); type: functional
[7] = Luminescence Cell-Based Dose Confirmation HTS to Identify Inhibitors of Platelet Dense Granule Release. [Related pubchem assays: 1663 (Primary HTS), 1678 (Summary of Project)]; type: functional
[8] = reduction of Shn3 3'UTR-driven luciferase in osteoblasts – cell-based, Clone20 osteoblasts, firefly luciferase, cherry-picked, dose response (AID 624132); type: functional;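 also: firefly luciferase luminescence from reporter carrying the Shn3 3'UTR in osteoblasts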
[9] = viability of HCT116 lacking mutant beta-catenin – cell-based, human colon tumor, dose response (AID 1045); type: functional;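 also: HCT116 colon tumor cells with beta catenin knocked out; cells exposed to compound for 60 hours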
[10] = viability of uninfected HEp-2 cells – cell-based, HTS, cytotoxicity control for RSV inhibitor project, dose response (AID 2410); type: functional; details: human respiratory syncytial virus
[11] = target: Heat shock protein HSP 90-alpha (Homo sapiens, UniProt P07900); type: functional, organism-based
[12] = non-specific 3'UTR reporter inhibition in Clone20-Shn3RL – cell-based, Renilla luciferase, cherry-picked, counter-screen for Shn3 inhibitor project, dose response (AID 624133); type: functional
HEK293 [13] = experiment: cells; details: Homo sapiens
[14] = target: T1, Voltage-gated N-type calcium channel alpha-1B subunit/Amyloid beta A4 precursor protein-binding family A member 1 (Homo sapiens, UniProt Q00975+Q02410); type: protein assay
T1 sequence (Q00975 whole entry): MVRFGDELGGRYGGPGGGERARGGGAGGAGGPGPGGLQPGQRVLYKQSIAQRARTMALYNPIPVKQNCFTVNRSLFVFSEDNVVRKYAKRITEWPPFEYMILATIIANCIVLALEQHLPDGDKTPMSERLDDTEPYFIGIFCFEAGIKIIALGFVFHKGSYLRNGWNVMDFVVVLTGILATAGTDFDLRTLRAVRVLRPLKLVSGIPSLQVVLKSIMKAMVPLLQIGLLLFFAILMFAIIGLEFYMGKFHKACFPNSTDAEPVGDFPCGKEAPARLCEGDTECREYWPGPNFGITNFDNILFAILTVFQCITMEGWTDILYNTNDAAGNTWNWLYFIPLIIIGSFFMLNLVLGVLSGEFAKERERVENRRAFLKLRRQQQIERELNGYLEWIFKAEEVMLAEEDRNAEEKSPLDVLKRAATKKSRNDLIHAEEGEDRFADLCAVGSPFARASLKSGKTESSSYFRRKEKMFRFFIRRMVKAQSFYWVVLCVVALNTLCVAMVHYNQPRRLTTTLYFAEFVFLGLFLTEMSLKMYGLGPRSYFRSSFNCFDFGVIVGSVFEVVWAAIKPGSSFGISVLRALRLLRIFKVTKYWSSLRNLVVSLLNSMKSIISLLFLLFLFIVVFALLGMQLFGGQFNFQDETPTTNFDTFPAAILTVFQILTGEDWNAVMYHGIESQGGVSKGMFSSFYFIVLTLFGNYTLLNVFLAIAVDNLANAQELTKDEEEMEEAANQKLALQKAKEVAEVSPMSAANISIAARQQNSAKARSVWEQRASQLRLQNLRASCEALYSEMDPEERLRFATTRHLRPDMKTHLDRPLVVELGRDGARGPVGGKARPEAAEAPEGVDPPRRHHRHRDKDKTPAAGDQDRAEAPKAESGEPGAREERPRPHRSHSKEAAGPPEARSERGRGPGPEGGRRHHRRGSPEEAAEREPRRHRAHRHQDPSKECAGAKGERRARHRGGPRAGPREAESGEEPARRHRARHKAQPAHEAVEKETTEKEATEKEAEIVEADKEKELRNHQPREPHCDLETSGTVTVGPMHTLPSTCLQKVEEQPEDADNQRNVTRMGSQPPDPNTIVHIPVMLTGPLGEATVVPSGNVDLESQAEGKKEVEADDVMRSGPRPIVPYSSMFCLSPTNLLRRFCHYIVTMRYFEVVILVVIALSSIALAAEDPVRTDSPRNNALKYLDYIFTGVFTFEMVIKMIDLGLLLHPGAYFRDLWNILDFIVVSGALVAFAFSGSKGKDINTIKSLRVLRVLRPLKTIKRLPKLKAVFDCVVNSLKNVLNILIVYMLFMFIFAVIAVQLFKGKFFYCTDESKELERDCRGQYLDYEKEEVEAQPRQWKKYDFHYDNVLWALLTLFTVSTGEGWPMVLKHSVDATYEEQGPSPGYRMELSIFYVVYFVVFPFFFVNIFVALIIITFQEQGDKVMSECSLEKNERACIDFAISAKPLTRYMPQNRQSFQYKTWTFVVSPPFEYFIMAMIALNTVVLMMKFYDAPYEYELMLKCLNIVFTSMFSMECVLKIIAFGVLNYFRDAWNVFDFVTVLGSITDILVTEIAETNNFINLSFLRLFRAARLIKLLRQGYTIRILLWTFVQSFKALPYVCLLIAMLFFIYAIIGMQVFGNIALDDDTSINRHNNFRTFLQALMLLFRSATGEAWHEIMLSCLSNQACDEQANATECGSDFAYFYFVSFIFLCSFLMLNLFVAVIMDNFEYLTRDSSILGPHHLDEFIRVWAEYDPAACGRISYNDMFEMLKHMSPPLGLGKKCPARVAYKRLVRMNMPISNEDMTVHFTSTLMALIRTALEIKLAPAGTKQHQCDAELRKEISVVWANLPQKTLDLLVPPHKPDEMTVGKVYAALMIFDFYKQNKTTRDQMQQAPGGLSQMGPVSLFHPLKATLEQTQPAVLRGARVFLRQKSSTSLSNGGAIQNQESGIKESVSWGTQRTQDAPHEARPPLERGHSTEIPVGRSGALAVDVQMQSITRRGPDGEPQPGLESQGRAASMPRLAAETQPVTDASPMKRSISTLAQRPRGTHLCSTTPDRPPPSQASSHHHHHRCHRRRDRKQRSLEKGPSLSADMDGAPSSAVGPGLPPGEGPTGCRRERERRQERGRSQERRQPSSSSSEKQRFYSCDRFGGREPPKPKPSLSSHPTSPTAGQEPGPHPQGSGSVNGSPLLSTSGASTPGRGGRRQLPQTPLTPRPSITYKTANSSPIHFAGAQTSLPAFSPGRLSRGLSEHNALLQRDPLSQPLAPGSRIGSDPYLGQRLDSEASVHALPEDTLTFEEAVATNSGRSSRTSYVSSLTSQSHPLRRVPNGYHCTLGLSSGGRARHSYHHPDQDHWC
T1 sequence (Q02410 whole entry): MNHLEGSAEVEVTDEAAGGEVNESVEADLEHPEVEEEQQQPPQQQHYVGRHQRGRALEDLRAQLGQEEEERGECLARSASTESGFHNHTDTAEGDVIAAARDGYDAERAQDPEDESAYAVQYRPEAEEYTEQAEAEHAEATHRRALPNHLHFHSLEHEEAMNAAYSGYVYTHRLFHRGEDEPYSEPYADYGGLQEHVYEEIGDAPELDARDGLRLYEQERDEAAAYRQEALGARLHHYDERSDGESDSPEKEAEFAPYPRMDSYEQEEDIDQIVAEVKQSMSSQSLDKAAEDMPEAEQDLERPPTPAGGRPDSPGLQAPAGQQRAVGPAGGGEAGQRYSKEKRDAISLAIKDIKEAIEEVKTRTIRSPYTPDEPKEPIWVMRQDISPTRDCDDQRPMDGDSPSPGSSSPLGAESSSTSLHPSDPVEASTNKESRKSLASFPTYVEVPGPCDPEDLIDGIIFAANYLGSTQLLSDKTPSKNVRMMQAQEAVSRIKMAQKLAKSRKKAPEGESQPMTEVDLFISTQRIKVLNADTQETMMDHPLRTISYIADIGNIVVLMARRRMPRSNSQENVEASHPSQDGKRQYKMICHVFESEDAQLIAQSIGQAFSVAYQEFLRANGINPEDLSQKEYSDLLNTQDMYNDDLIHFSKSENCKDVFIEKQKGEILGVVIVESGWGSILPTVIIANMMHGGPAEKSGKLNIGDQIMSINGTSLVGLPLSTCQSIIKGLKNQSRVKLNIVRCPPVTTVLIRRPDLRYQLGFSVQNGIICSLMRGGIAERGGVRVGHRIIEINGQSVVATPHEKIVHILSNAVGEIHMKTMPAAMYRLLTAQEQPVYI

[15] = target: T1, Voltage-gated N-type calcium channel alpha-1B subunit/Amyloid beta A4 precursor protein-binding family A member 1; type: protein assay; remark: listed apart in the source
HEK293 [16] = experiment: cells; details: Homo sapiens; remark: listed apart in the source
[17] = viability of PTEN-deleted HCT116 cells – cell-based, HCT116 PTEN knockout, dose response (AID 1047); type: functional;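 also: HCT116 colon tumor cells with PTEN knocked out; cells exposed to compound for 60 hours before readout; potency for loss of cell viability measured by luminescence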
[18] = target: T2, Short transient receptor potential channel 4 (Mus musculus, UniProt Q9QUQ5); experiment: block of DAMGO-driven TRPC4 calcium entry – cell-based, HEK293 TRPC4/mu-opioid, Fluo-4 calcium, dose response (AID 434942); type: functional;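 also: potency of inhibitors blocking the TRPC4 calcium response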
T2 sequence (Q9QUQ5 whole entry): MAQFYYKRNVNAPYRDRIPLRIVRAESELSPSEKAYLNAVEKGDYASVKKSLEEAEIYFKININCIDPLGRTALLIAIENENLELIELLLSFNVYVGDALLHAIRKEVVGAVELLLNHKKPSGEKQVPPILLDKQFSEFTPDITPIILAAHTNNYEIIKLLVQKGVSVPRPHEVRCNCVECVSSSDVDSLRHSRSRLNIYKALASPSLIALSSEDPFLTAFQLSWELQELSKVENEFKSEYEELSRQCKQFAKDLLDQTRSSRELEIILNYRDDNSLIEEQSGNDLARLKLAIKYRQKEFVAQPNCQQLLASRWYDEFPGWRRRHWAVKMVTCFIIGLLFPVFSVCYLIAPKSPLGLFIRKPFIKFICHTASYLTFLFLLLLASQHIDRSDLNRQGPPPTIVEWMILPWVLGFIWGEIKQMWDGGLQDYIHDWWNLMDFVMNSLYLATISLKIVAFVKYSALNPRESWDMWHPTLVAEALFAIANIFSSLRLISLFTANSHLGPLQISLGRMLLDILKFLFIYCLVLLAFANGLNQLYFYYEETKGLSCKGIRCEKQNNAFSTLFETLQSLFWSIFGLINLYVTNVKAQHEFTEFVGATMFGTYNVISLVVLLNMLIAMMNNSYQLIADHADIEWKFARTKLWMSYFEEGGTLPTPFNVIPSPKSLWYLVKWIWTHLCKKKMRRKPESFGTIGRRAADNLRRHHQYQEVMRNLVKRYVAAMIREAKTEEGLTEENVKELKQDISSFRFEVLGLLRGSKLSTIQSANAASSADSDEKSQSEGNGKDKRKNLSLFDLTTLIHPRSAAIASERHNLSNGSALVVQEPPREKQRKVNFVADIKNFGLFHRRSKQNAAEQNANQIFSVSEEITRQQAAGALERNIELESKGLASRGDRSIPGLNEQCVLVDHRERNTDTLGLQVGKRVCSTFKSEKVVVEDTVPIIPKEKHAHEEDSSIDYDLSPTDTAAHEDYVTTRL

O=C(c1ccc(Cl)cc1)C(CN1CCCC1)c1ccccc1 (stereo not drawn)
IC50 (Vero [1]): > 25 µM (active)
EC50 [2]: > 120 µM (not active)
EC50 (H4): > 120 µM (not active)
CC50 (Vero [3]): 23 µM (active)
EC50 [4]: > 120 µM (not active)

Cc1ccc(Nc2ncnc3ccccc23)cc1
AC50 (HeLa): 154 µM (active)

Cc1ccc(NN2C(=O)C=C(c3ccc(Cl)cc3)C2=O)cc1
EC50 [5]: > 112 µM (not active)
AC50 [6]: 19.8 µM (active)
EC50 [7]: 9.18 µM (active)
AC50 [8]: 6.53 µM (active)
EC50 [9]: 24.1 µM (active)
CC50 [10]: 10.8 µM (active)
AC50 [11]: < 0.195 µM (active)
AC50 [12]: 12.6 µM (active)
EC50 (HEK293 [13]): > 59.6 µM (inactive)
IC50 [14]: 11 µM (active)
IC50 [15]: > 50 µM (inactive)
EC50 (HEK293 [16]): > 59.6 µM (inactive)
EC50 [17]: 19.9 µM (active)

COCCn1c(SCC(=O)Nc2ccccc2OC)nc2c3ccccc3nc-2c1O
EC50 [18]: 3.76 µM (active)
EC50 (HEK293 [13]): > 59.6 µM (inactive)
EC50 (HEK293 [16]): > 59.6 µM (inactive)

Cn1cccc1C(=O)C(=O)Nc1ccc(F)c(F)c1
AC50 (HeLa): 72.6 µM (active)
